The NIST ThermoML archive (doi:10.1016/j.jct.2016.10.009)
Numbers after ± are expanded uncertainties.

Settings: Liquid, Vibrating tube method

CCC(C)O (configuration not stated) [butan-2-ol]
mass density [kg/m3]
Settings	293.15 K	298.15 K	313.15 K	333.15 K	353.19 K	373.24 K	393.28 K
100 kPa	806.7 ± 0.7	802.6 ± 0.7	789.6 ± 0.7	770.8 ± 0.7	750.3 ± 0.7	–	–
1000 kPa	807.4 ± 0.7	803.3 ± 0.7	790.3 ± 0.7	771.8 ± 0.7	751.4 ± 0.7	729.1 ± 0.7	704.8 ± 0.7
5000 kPa	810.4 ± 0.7	806.4 ± 0.7	793.7 ± 0.7	775.7 ± 0.7	756 ± 0.7	734.5 ± 0.7	711.3 ± 0.7
10000 kPa	814 ± 0.7	810.1 ± 0.7	797.8 ± 0.7	780.3 ± 0.7	761.3 ± 0.7	740.8 ± 0.7	718.8 ± 0.7
15000 kPa	817.4 ± 0.7	813.7 ± 0.7	801.6 ± 0.7	784.7 ± 0.7	766.4 ± 0.8	746.6 ± 0.8	725.6 ± 0.8
20000 kPa	820.7 ± 0.7	817 ± 0.7	805.3 ± 0.8	788.9 ± 0.8	771 ± 0.8	751.9 ± 0.8	731.7 ± 0.8
25000 kPa	823.9 ± 0.8	820.2 ± 0.8	808.6 ± 0.8	792.7 ± 0.8	775.4 ± 0.8	757 ± 0.8	737.4 ± 0.8
30000 kPa	826.9 ± 0.8	823.4 ± 0.8	812.1 ± 0.8	796.4 ± 0.8	779.5 ± 0.8	761.6 ± 0.8	742.7 ± 0.8
35000 kPa	829.8 ± 0.8	826.4 ± 0.8	815.3 ± 0.8	800 ± 0.8	783.5 ± 0.8	766.1 ± 0.8	747.8 ± 0.8
40000 kPa	832.7 ± 0.8	829.2 ± 0.8	818.4 ± 0.8	803.5 ± 0.8	787.2 ± 0.8	770.3 ± 0.8	752.5 ± 0.9
45000 kPa	835.4 ± 0.8	832 ± 0.8	821.3 ± 0.8	806.6 ± 0.8	790.8 ± 0.8	774.4 ± 0.9	757 ± 0.9
50000 kPa	838.1 ± 0.8	834.7 ± 0.8	824.3 ± 0.8	809.8 ± 0.8	794.4 ± 0.9	778.1 ± 0.9	761.2 ± 0.9
55000 kPa	840.6 ± 0.8	837.4 ± 0.8	827.1 ± 0.8	812.8 ± 0.9	797.7 ± 0.9	781.8 ± 0.9	765.4 ± 0.9
60000 kPa	843.2 ± 0.8	839.9 ± 0.8	829.8 ± 0.9	815.8 ± 0.9	801 ± 0.9	785.3 ± 0.9	769.2 ± 0.9
65000 kPa	845.6 ± 0.8	842.4 ± 0.8	832.5 ± 0.9	818.7 ± 0.9	804.1 ± 0.9	788.8 ± 0.9	772.9 ± 1
70000 kPa	848 ± 0.9	844.8 ± 0.9	835 ± 0.9	821.4 ± 0.9	807.2 ± 0.9	792.1 ± 1	776.6 ± 1
80000 kPa	852.6 ± 0.9	849.5 ± 0.9	839.9 ± 0.9	826.8 ± 0.9	812.9 ± 1	798.4 ± 1	783.4 ± 1
90000 kPa	857.1 ± 0.9	854.1 ± 0.9	844.7 ± 0.9	831.9 ± 1	818.3 ± 1	804.3 ± 1	789.8 ± 1.1
100000 kPa	861.2 ± 0.9	858.3 ± 0.9	849.1 ± 1	836.7 ± 1	823.5 ± 1	809.8 ± 1.1	795.8 ± 1.1
110000 kPa	865.3 ± 0.9	862.4 ± 1	853.5 ± 1	841.3 ± 1	828.5 ± 1.1	815.1 ± 1.1	801.5 ± 1.1
120000 kPa	869.2 ± 1	866.3 ± 1	857.6 ± 1	845.6 ± 1	833.1 ± 1.1	820.1 ± 1.1	806.8 ± 1.2
130000 kPa	873 ± 1	870.1 ± 1	861.5 ± 1	849.9 ± 1.1	837.6 ± 1.1	824.9 ± 1.2	811.9 ± 1.2
140000 kPa	876.6 ± 1	873.9 ± 1	865.4 ± 1	853.9 ± 1.1	842 ± 1.1	829.5 ± 1.2	816.8 ± 1.2

CC(C)OC(C)C [diisopropyl ether]
mass density [kg/m3]
Settings	293.15 K	298.15 K	313.15 K	333.15 K	353.19 K	373.24 K	393.28 K
100 kPa	723.5 ± 0.7	718.3 ± 0.7	702.4 ± 0.7	680.5 ± 0.7	–	–	–
1000 kPa	724.6 ± 0.7	719.6 ± 0.7	703.8 ± 0.7	682.1 ± 0.7	659.5 ± 0.7	635.6 ± 0.7	609.5 ± 0.7
5000 kPa	729.4 ± 0.7	724.5 ± 0.7	709.4 ± 0.7	688.9 ± 0.7	667.6 ± 0.7	645.5 ± 0.7	622.1 ± 0.8
10000 kPa	734.9 ± 0.7	730.2 ± 0.7	715.8 ± 0.7	696.4 ± 0.8	676.5 ± 0.8	656.1 ± 0.8	635 ± 0.8
15000 kPa	740 ± 0.8	735.6 ± 0.8	721.7 ± 0.8	703.2 ± 0.8	684.4 ± 0.8	665.3 ± 0.8	645.8 ± 0.8
20000 kPa	744.8 ± 0.8	740.5 ± 0.8	727.2 ± 0.8	709.4 ± 0.8	691.5 ± 0.8	673.5 ± 0.8	655.2 ± 0.8
25000 kPa	749.4 ± 0.8	745.2 ± 0.8	732.1 ± 0.8	715.1 ± 0.8	698 ± 0.8	680.8 ± 0.8	663.5 ± 0.8
30000 kPa	753.7 ± 0.8	749.6 ± 0.8	737.1 ± 0.8	720.5 ± 0.8	704 ± 0.8	687.6 ± 0.9	671.1 ± 0.9
35000 kPa	757.7 ± 0.8	753.7 ± 0.8	741.6 ± 0.8	725.6 ± 0.9	709.7 ± 0.9	693.8 ± 0.9	677.9 ± 0.9
40000 kPa	761.6 ± 0.8	757.8 ± 0.9	745.9 ± 0.9	730.3 ± 0.9	714.8 ± 0.9	699.6 ± 0.9	684.3 ± 0.9
45000 kPa	765.3 ± 0.9	761.6 ± 0.9	750 ± 0.9	734.8 ± 0.9	719.7 ± 0.9	705 ± 0.9	690.2 ± 1
50000 kPa	768.9 ± 0.9	765.2 ± 0.9	753.9 ± 0.9	739.1 ± 0.9	724.6 ± 0.9	710.1 ± 1	695.8 ± 1
55000 kPa	772.4 ± 0.9	768.8 ± 0.9	757.7 ± 0.9	743.1 ± 1	728.9 ± 1	714.9 ± 1	701.1 ± 1
60000 kPa	775.7 ± 0.9	772.2 ± 0.9	761.3 ± 1	747.1 ± 1	733.2 ± 1	719.5 ± 1	705.9 ± 1.1
65000 kPa	778.9 ± 1	775.4 ± 1	764.8 ± 1	750.9 ± 1	737.2 ± 1	723.9 ± 1.1	710.6 ± 1.1
70000 kPa	782 ± 1	778.6 ± 1	768.1 ± 1	754.4 ± 1	741.1 ± 1.1	728.1 ± 1.1	715.2 ± 1.1
80000 kPa	787.9 ± 1	784.6 ± 1	774.4 ± 1	761.3 ± 1.1	748.4 ± 1.1	735.9 ± 1.1	723.5 ± 1.2
90000 kPa	793.5 ± 1.1	790.3 ± 1.1	780.5 ± 1.1	767.7 ± 1.1	755.4 ± 1.2	743.2 ± 1.2	731.3 ± 1.2
100000 kPa	798.8 ± 1.1	795.7 ± 1.1	786.1 ± 1.1	773.7 ± 1.2	761.6 ± 1.2	750 ± 1.2	738.4 ± 1.3
110000 kPa	803.9 ± 1.1	800.8 ± 1.1	791.4 ± 1.2	779.4 ± 1.2	767.8 ± 1.3	756.3 ± 1.3	745.3 ± 1.3
120000 kPa	808.7 ± 1.2	805.6 ± 1.2	796.5 ± 1.2	784.7 ± 1.3	773.4 ± 1.3	762.3 ± 1.3	751.4 ± 1.4
130000 kPa	813.2 ± 1.2	810.3 ± 1.2	801.4 ± 1.3	789.9 ± 1.3	778.8 ± 1.3	768 ± 1.4	757.4 ± 1.4
140000 kPa	817.6 ± 1.2	814.6 ± 1.3	806 ± 1.3	794.8 ± 1.3	784 ± 1.4	773.3 ± 1.4	763.1 ± 1.5
